The target in one experiment is T1, Serine protease 1 (Bos taurus, UniProt P00760).
T1 sequence (P00760 whole entry): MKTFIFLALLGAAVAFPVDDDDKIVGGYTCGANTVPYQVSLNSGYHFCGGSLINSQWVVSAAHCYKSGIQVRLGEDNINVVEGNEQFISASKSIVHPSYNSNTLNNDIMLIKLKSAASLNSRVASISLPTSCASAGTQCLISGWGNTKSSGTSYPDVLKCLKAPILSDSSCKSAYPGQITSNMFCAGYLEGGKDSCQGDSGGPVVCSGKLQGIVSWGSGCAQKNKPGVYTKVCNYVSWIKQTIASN
The experiment is described as follows: Inhibitory constant against trypsin.

The next experiment has as its target Coagulation factor X (Homo sapiens, UniProt P00742). The experiment can be described thus: Inhibitory constant against Coagulation factor Xa (factor Xa). More on the design: species or system Bos taurus.

Chain of Coagulation factor X (P00742 41-179 limits assumed): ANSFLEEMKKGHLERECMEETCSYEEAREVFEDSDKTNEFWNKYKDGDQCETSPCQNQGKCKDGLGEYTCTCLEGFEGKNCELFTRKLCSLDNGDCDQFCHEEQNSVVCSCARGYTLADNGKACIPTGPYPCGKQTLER
Chain of Coagulation factor X (P00742 235-488 limits assumed): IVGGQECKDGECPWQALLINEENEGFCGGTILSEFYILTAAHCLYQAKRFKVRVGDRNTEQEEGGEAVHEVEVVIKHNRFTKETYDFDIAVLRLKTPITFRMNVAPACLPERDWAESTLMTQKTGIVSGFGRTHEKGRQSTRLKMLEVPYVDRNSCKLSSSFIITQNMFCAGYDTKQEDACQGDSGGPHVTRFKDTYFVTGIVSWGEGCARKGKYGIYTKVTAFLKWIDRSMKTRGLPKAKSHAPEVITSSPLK

For the molecule `Cc1c(F)c(Oc2cccc(CN)c2)cc(Oc2cccc(C(=N)N)c2)c1F`, the Ki at Serine protease 1 turned out to be 2.9 µM; on Coagulation factor X it was 1.4 µM.

`Cc1c(F)c(Oc2cccc(C(=N)N)c2)cc(Oc2cccc(C(=N)N)c2)c1F`: the Ki at Serine protease 1 stood at 0.74 µM; at Coagulation factor X it was 0.012 µM.

The record behind these values is ChEMBL document CHEMBL1132402, “Conformations of trypsin-bound amidine inhibitors of blood coagulant factor Xa by double REDOR NMR and MD simulations” (J Med Chem, 1999).
